Assay results reported in patent publication US20200223848A1, “DEGRADATION AGENT USING AUTOPHAGIC MECHANISM OF DAMAGED MITOCHONDRIA” (TOHOKU UNIVERSITY, priority 2017, published 2020).

Tests used:
Assay type in all cases: cell-based
HeLa cells = experiment: Cytoprotective effect against mitochondrial injury induced by uncoupler CCCP (Hoechst33342 nuclear staining, DNA fragmentation, cell viability)
Description: Assessment Method for Cytoprotective Effect of Compound of Example 3, (R)-2-Acetylamino-3-[2-amino-9-(4-fluoro-benzyl)-6-oxo-6,9-dihydro-1H-purin-8-ylsulfanyl]-N-{3-[2-(2-{3-[2-oxo-2-(2-phenyl-1H-indol-3-yl)-acetylamino]-propoxy}-ethoxy)-ethoxy]-propyl}-propionamide (Indole-FBn), Against Mitochondrial Injury, and Confirmation of Inhibition of Cytoprotective Effect with Autophagy Inhibitor (Bafilomycin A1: Baf A1)
Cell Viability under Condition of Treating Cells with Indole-FBn and CCCP (Test Group):
HeLa cells seeded in Dulbecco's Modified Eagle Medium (DMEM) in a 96-well plate at 30,000 cells/well were incubated under the conditions of 37° C./5% CO2 overnight. […]
Subsequently, the uncoupler CCCP was added at a final concentration of 10 μM, followed by further incubation for 2 hours to induce mitochondrial injury. Cells in each of which DNA fragmentation was found in the nucleus were judged to be dead cells, and cell viability was calculated by the following equation. […]
HeLa cells seeded in Dulbecco's Modified Eagle Medium (DMEM) in a 96-well plate at 30,000 cells/well were incubated under the conditions of 37° C./5% CO2 for 1 day, and then subjected to nuclear staining by Hoechst33342 staining. […] Cells in each of which DNA fragmentation was found in the nucleus were judged to be dead cells, and cell viability was calculated. […]

[1] = tested on: HeLa cells stably expressing EmGFP-HaloTag-Omp25; experiment: Living cell imaging of degradation of injured mitochondria (EmGFP-HaloTag-Omp25 green and MitoTracker Red CMXRos red fluorescence)
Procedure: HeLa cells cultured in Dulbecco's Modified Eagle Medium (DMEM) were transfected with the plasmid pEmGFP-HaloTag-Omp25 containing a gene sequence encoding the EmGFP-HaloTag-Omp25 fusion protein localized on the mitochondrial outer membrane, and were allowed to stably express the protein. As a result, mitochondria in the cells were able to be observed using green fluorescence as an indicator.
A red fluorescent dye MitoTracker Red CMXRos (Thermo Fisher Scientific, M7513) was added thereto, followed by incubation for 30 minutes to stain mitochondria. At this stage, the mitochondria in the cells had been stained in two colors by EmGFP-HaloTag-Omp25 and MitoTracker Red CMXRos. Subsequently, MitoTracker Red CMXRos in the medium was removed by medium exchange. Mitochondria to be biosynthesized after this operation can only be detected with green fluorescence, and are not to be detected with red fluorescence. This difference was utilized to observe the degradation process of mitochondria by living cell imaging.
The cells were divided into two groups. Indole-FBn was added to an experimental group at a final concentration of […] was not added to a control group. In order to observe living cells at a fixed point for a long period of time, a culture vessel was fixed to a stage-top incubator (37° C., 5% CO2) mounted on a fluorescence microscope (KEYENCE, BX9000), and all the subsequent operations were performed on the microscope. […]
The signals of EmGFP-HaloTag-Omp25 and MitoTracker Red CMXRos at the time of the addition of Indole-FBn (−10 h), the time of the addition of CCCP (0 h), 2 hours after the addition of CCCP (+2 h), […] after the addition of CCCP (+8 h), and 16 hours after the addition of CCCP (+16 h) are shown in FIG. 6 and FIG. 7. In the graphs, the intensities of the signals of EmGFP-HaloTag-Omp25 (green fluorescence) and MitoTracker Red CMXRos (red fluorescence) in the photographs shown in FIG. 6 are shown as relative values with the respective intensities at −10 h being defined as 1. […]

Detroit532 cells = experiment: JC-1 staining of mitochondrial membrane potential; details: Down syndrome patient foreskin-derived fibroblasts; 10 μM, incubation for 3 days
Procedure: Detroit532 cells, which were Down syndrome patient foreskin-derived fibroblasts, were cultured in Eagle's Minimum Essential Medium. The cells were divided into two groups. A compound (Indole-FBn) was added to an experimental group at a final concentration of 10 μM, and was not added to a control group, followed by incubation for 3 days (37° C., 5% CO2). The cells of each group were each stained with JC-1 (abcam, 113850).
The JC-1 dye accumulates in mitochondria having a normal membrane potential to emit red fluorescence. Meanwhile, its localization is lost from mitochondria having an abnormal membrane potential and green fluorescence is emitted. That is, in a JC-1 staining image, a lower “green/red fluorescence intensity ratio” means that the membrane potential of mitochondria is kept more normal. Staining images were analyzed with ImageJ (National Institute of Health), and the “green/red fluorescence intensity ratio” is shown as a graph. Error bars represent standard deviations obtained from data from three independent experiments.

With CC(=O)N[C@@H](CSc1nc2c(=O)[nH]c(N)nc2n1Cc1ccc(F)cc1)C(=O)NCCCOCCOCCOCCCNC(=O)C(=O)c1c(-c2ccccc2)[nH]c2ccccc12 [Indole-FBn, (R)-2-Acetylamino-3-[2-amino-9-(4-fluoro-benzyl)-6-oxo-6,9-dihydro-1H-purin-8-ylsulfanyl]-N-{3-[2-(2-{3-[2-oxo-2-(2-phenyl-1H-indol-3-yl)-acetylamino]-propoxy}-ethoxy)-ethoxy]-propyl}-propionamide] the “cytoprotective effect under the CCCP-treated condition in coexistence of autophagy inhibitor Baf A1” value (HeLa cells; Baf A1 200 nM added 2 hours before Indole-FBn treatment, CCCP 10 μM) was “significantly inhibited”, the “cell death due to mitochondrial injury (cell viability)” value (HeLa cells; Indole-FBn 1 μM for 10 hours, then CCCP 10 μM for 2 hours, versus non-Indole-FBn-treated control) was “significantly suppressed cell death” and the “green and red signal intensities after the addition of CCCP” value ([1]; Indole-FBn-treated group, 2 h, 8 h after CCCP, relative to intensities at -10 h defined as 1) was “reduced”. The “removal of injured mitochondria and production of new mitochondria” value ([1]; living cell imaging experiment, overall conclusion) was “promoted both the removal of injured mitochondria and the production of new mitochondria”, the “green fluorescence intensity, comparison of 8 hours and 16 hours after the addition of CCCP” value ([1]; only in the Indole-FBn-treated group, indicates production of new mitochondria) was “increased” and the “quality of mitochondria (JC-1 green/red fluorescence intensity ratio, membrane potential)” value (Detroit532 cells) was “significantly improved”.
